Our source for the melting point values is publication PMC6084004 (2017).

For `Nc1ncnc2c1c1cc(Cl)ccc1n2[C@@H]1O[C@H](CO)[C@@H](O)[C@@H]1O`, the melting point (commonly the temperature of the solid-liquid transition) was 298 to 301 °C. In the case of `COc1ncnc2c1c1cc(Cl)ccc1n2[C@@H]1O[C@H](CO)[C@@H](O)[C@@H]1O` it was 238 to 241 °C; in that of `CSc1ncnc2c1c1cc(Cl)ccc1n2[C@@H]1O[C@H](CO)[C@@H](O)[C@@H]1O`, 181 to 183 °C. To `Cc1ncnc2c1c1cc(Cl)ccc1n2[C@@H]1O[C@H](CO)[C@@H](O)[C@@H]1O` belongs 233 to 235 °C. As to `OC[C@H]1O[C@@H](n2c3ccc(Cl)cc3c3c(-c4ccco4)ncnc32)[C@@H](O)[C@@H]1O`, the melting point was 241 to 243 °C. To `OC[C@H]1O[C@@H](n2c3ccc(Cl)cc3c3c(-c4ccoc4)ncnc32)[C@@H](O)[C@@H]1O` belongs 186 to 188 °C; to `OC[C@H]1O[C@@H](n2c3ccc(Cl)cc3c3c(-c4cccs4)ncnc32)[C@@H](O)[C@@H]1O`, 192 to 194 °C. In the case of `OC[C@H]1O[C@@H](n2c3ccc(Cl)cc3c3c(-c4ccsc4)ncnc32)[C@@H](O)[C@@H]1O` it was 207 to 209 °C. Compound `OC[C@H]1O[C@@H](n2c3ccc(Cl)cc3c3c(-c4ccccc4)ncnc32)[C@@H](O)[C@@H]1O` displayed a melting point of 183 to 185 °C. In the case of `Nc1ncnc2c1c1cc(Cl)ccc1n2[C@@H]1O[C@H](CO)[C@@H](O)[C@H]1F` it was 275 to 278 °C; in that of `CSc1ncnc2c1c1cc(Cl)ccc1n2[C@@H]1O[C@H](CO)[C@@H](O)[C@H]1F`, 205 to 209 °C.

`Cc1ncnc2c1c1cc(Cl)ccc1n2[C@@H]1O[C@H](CO)[C@@H](O)[C@H]1F`: the melting point is 247 to 251 °C. `OC[C@H]1O[C@@H](n2c3ccc(Cl)cc3c3c(-c4ccco4)ncnc32)[C@H](F)[C@@H]1O`: the melting point lay within 203 to 206 °C.

In turn, `OC[C@H]1O[C@@H](n2c3ccc(Cl)cc3c3c(-c4ccoc4)ncnc32)[C@H](F)[C@@H]1O` showed a melting point of 184 to 186 °C. In the case of `OC[C@H]1O[C@@H](n2c3ccc(Cl)cc3c3c(-c4cccs4)ncnc32)[C@H](F)[C@@H]1O` it was 206 to 211 °C; in that of `OC[C@H]1O[C@@H](n2c3ccc(Cl)cc3c3c(-c4ccsc4)ncnc32)[C@H](F)[C@@H]1O`, 221 to 222 °C; in that of `OC[C@H]1O[C@@H](n2c3ccc(Cl)cc3c3c(-c4ccccc4)ncnc32)[C@H](F)[C@@H]1O`, 192 to 193 °C. `Nc1ncnc2c1c1cc(Cl)ccc1n2[C@@H]1O[C@H](CO)[C@@H](O)[C@@H]1F` came in with a melting point of 267 to 272 °C.

Turning to `COc1ncnc2c1c1cc(Cl)ccc1n2[C@@H]1O[C@H](CO)[C@@H](O)[C@@H]1F`, the melting point lay in the range of 248 to 250 °C.

As to `CSc1ncnc2c1c1cc(Cl)ccc1n2[C@@H]1O[C@H](CO)[C@@H](O)[C@@H]1F`, the melting point lay in the range of 230 to 231 °C. In the case of `Cc1ncnc2c1c1cc(Cl)ccc1n2[C@@H]1O[C@H](CO)[C@@H](O)[C@@H]1F` it was 211 to 216 °C; in that of `OC[C@H]1O[C@@H](n2c3ccc(Cl)cc3c3c(-c4ccco4)ncnc32)[C@@H](F)[C@@H]1O`, 75 to 81 °C. In the case of `OC[C@H]1O[C@@H](n2c3ccc(Cl)cc3c3c(-c4ccoc4)ncnc32)[C@@H](F)[C@@H]1O`, the melting point lay within 208 to 214 °C. Consider `OC[C@H]1O[C@@H](n2c3ccc(Cl)cc3c3c(-c4cccs4)ncnc32)[C@@H](F)[C@@H]1O`, for which the melting point is 225 to 227 °C. In the case of `OC[C@H]1O[C@@H](n2c3ccc(Cl)cc3c3c(-c4ccsc4)ncnc32)[C@@H](F)[C@@H]1O` it was 240 to 241 °C; in that of `OC[C@H]1O[C@@H](n2c3ccc(Cl)cc3c3c(-c4ccccc4)ncnc32)[C@@H](F)[C@@H]1O`, 214 to 216 °C.
